Data published in PubChem BioAssay AID248 (DTP/NCI, 2004).
Where “and” joins values, the source holds several entries; their conditions need not be identical. Equal entries are not always repeated. Toxic doses and inconclusive results are not listed. Cut-off read from the data, not from the text of the source: active = T/C of 150% or more; inactive = T/C below 125%.

Tested on: L1210 leukemia ip in BDF1 mice, survival T/C
Assay: NCI In Vivo Anticancer Drug Screen. Data for tumor model L1210 Leukemia (intraperitoneal) in B6D2F1 (BDF1) mice
Conditions: endpoint: mean survival time, higher = longer survival
Summary of the method: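 Antitumor effect is assessed in tumor-bearing animals. Survival in the compound arm is compared with a vehicle-dosed control arm and expressed as their quotient.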

[1] = dose: 100.0 mg/kg/injection, schedule: Q01DX009 (ip), vehicle: Klucel (hydroxypropylcellulose) (HPC)
[2] = dose: 200.0 mg/kg/injection, schedule: Q01DX009 (ip), vehicle: Klucel (hydroxypropylcellulose) (HPC)
[3] = dose: 100.0 mg/kg/injection, schedule: Q01DX001 (ip), vehicle: saline
[4] = dose: 100.0 mg/kg/injection, schedule: Q04DX003 (ip), vehicle: Klucel (hydroxypropylcellulose) (HPC)
[5] = dose: 200.0 mg/kg/injection, schedule: Q04DX003 (ip), vehicle: Klucel (hydroxypropylcellulose) (HPC)
[6] = dose: 400.0 mg/kg/injection, schedule: Q04DX003 (ip), vehicle: Klucel (hydroxypropylcellulose) (HPC)
[7] = dose: 400.0 mg/kg/injection, schedule: Q01DX009 (ip), vehicle: Klucel (hydroxypropylcellulose) (HPC)

Measured: T/C

COc1cc(O)c([N+](=O)[O-])cc1OC
inactive: dose: 50.0 mg/kg/injection, schedule: Q04DX003 (ip), vehicle: DMSO 92 % of control | dose: 100.0 mg/kg/injection, schedule: Q04DX003 (ip), vehicle: DMSO 97 % of control | dose: 200.0 mg/kg/injection, schedule: Q04DX003 (ip), vehicle: DMSO 92 % of control

CC1CC(=O)c2c(cc3c(-c4c(O)cc(O)c5c(O)c6c(cc45)OC(C)CC6=O)c(O)cc(O)c3c2O)O1 (stereo not drawn)
inactive: dose: 100.0 mg/kg/injection, schedule: Q04DX003 (ip), vehicle: carboxymethylcellulose (CMC) 103 % of control | dose: 200.0 mg/kg/injection, schedule: Q04DX003 (ip), vehicle: carboxymethylcellulose (CMC) 92 % of control

NC(CC(=O)O)C(=O)OCc1ccccc1 (stereo not drawn)
inactive: [1] 95 % of control | dose: 100.0 mg/kg/injection, schedule: Q04DX002 (ip), vehicle: Klucel (hydroxypropylcellulose) (HPC) 92 % of control | [2] 95 % of control | dose: 200.0 mg/kg/injection, schedule: Q04DX002 (ip), vehicle: Klucel (hydroxypropylcellulose) (HPC) 103 % of control | dose: 400.0 mg/kg/injection, schedule: Q04DX002 (ip), vehicle: Klucel (hydroxypropylcellulose) (HPC) 95 % of control

COc1ccc(CN2CCCN(Cc3ccc(OC)cc3)C2c2cc(I)cc(I)c2O)cc1
inactive: dose: 100.0 mg/kg/injection, schedule: Q01DX001 (ip), vehicle: acetone 96 % of control | dose: 200.0 mg/kg/injection, schedule: Q01DX001 (ip), vehicle: acetone 96 % of control | dose: 400.0 mg/kg/injection, schedule: Q01DX001 (ip), vehicle: acetone 94 % of control

Cc1ccc([I+]c2ccc(C)cc2)cc1
inactive: dose: 8.0 mg/kg/injection, schedule: Q04DX002 (ip), vehicle: saline 101 % of control | dose: 16.0 mg/kg/injection, schedule: Q04DX002 (ip), vehicle: saline 92 % of control | dose: 32.0 mg/kg/injection, schedule: Q04DX002 (ip), vehicle: saline 92 % of control

Cc1ccc([N+](=O)[O-])cc1O
inactive: dose: 25.0 mg/kg/injection, schedule: Q04DX003 (ip), vehicle: saline 98 % of control | dose: 50.0 mg/kg/injection, schedule: Q04DX003 (ip), vehicle: saline 102 % of control | [3] 97 % of control | dose: 100.0 mg/kg/injection, schedule: Q04DX003 (ip), vehicle: saline 97 % of control

CNc1cc(C(C)C)ccc1C
inactive: dose: 12.5 mg/kg/injection, schedule: Q01DX009 (ip), vehicle: Klucel (hydroxypropylcellulose) (HPC) 102 % of control | dose: 25.0 mg/kg/injection, schedule: Q01DX009 (ip), vehicle: Klucel (hydroxypropylcellulose) (HPC) 96 % of control | dose: 50.0 mg/kg/injection, schedule: Q01DX009 (ip), vehicle: Klucel (hydroxypropylcellulose) (HPC) 113 % of control | dose: 100.0 mg/kg/injection, schedule: Q01DX009 (sc), vehicle: olive oil, sesame oil, peanut oil 114 % of control | dose: 100.0 mg/kg/injection, schedule: Q04DX003 (sc), vehicle: olive oil, sesame oil, peanut oil 108 % of control | dose: 200.0 mg/kg/injection, schedule: Q01DX009 (sc), vehicle: olive oil, sesame oil, peanut oil 105 % of control | dose: 200.0 mg/kg/injection, schedule: Q04DX003 (sc), vehicle: olive oil, sesame oil, peanut oil 105 % of control | dose: 400.0 mg/kg/injection, schedule: Q01DX009 (sc), vehicle: olive oil, sesame oil, peanut oil 110 % of control | dose: 400.0 mg/kg/injection, schedule: Q04DX003 (sc), vehicle: olive oil, sesame oil, peanut oil 103 % of control

COC(=O)c1ccccc1N=NNc1ccccc1C(=O)OC
inactive: dose: 100.0 mg/kg/injection, schedule: Q04DX002 (ip), vehicle: saline with Tween-80 92 % of control | [4] 107 % of control | dose: 200.0 mg/kg/injection, schedule: Q04DX002 (ip), vehicle: saline with Tween-80 89 % of control | [5] 111 % of control | [6] 98 % of control

O=C(Oc1c(Cl)cc(Cl)cc1C=Nc1ccc(Cl)cc1)c1ccccc1
inactive: [1] 103 % of control | [2] 104 % of control | [7] 96 % of control

O=[N+]([O-])c1cc(Cl)c(O)c([N+](=O)[O-])c1O
inactive: dose: 75.0 mg/kg/injection, schedule: Q01DX001 (ip), vehicle: carboxymethylcellulose (CMC) 103 % of control

c1ccc(C2CC(c3ccccc3)S2)cc1 (stereo not drawn)
inactive: [4] 100 % of control | [5] 105 % of control | [6] 105 % of control

C=C(C)C1CCC2CC/C(=N\Nc3ccccc3C(=O)OC)C=C2C1 (stereo not drawn)
inactive: [4] 90 % of control | [5] 94 % of control

COC(OC)C(Br)(Br)Br
inactive: [3] 96 % of control | dose: 200.0 mg/kg/injection, schedule: Q01DX001 (ip), vehicle: saline 106 % of control | dose: 400.0 mg/kg/injection, schedule: Q01DX001 (ip), vehicle: saline 100 % of control

O=C1NCC2C3CCC(O3)C12 (stereo not drawn)
inactive: dose: 50.0 mg/kg/injection, schedule: Q04DX002 (ip), vehicle: saline 101 % of control | dose: 100.0 mg/kg/injection, schedule: Q04DX002 (ip), vehicle: saline 97 % of control and 103 % of control | dose: 200.0 mg/kg/injection, schedule: Q04DX002 (ip), vehicle: saline 105 % of control | dose: 400.0 mg/kg/injection, schedule: Q04DX002 (ip), vehicle: saline 97 % of control and 92 % of control

O=C(Nc1ccccc1O)c1ccc([N+](=O)[O-])cc1
inactive: [1] 100 % of control | [2] 91 % of control | [7] 93 % of control
